The target in one test is T1, PDE4B catalytic domain (Homo sapiens, UniProt Q07343).
T1 construct: The cDNA of PDE4B catalytic domain (hereinafter abbreviated as Cat) was isolated from human RNA by RT-PCR; made in house; host or cells: Sf9 insect cells (baculovirus, Bac-to-Bac)
As to the kind of experiment: Phosphodiesterase inhibitory activity (recombinant PDE4Bcat, [3H]cAMP). Type of test: biochemical. The conditions noted are these: 30° C. for 20 minutes, read-out: IC50 (μmol/L) PDE4. The source says:
The cDNA of PDE4B catalytic domain (hereinafter abbreviated as Cat) was isolated from human RNA by RT-PCR. The isolated cDNA fragments were inserted into Sf9 insect cells using Gateway system (product of Invitrogen Corporation) and Bac-to-Bac (registered trademark) Baculovirus Expression system (product of Invitrogen Corporation) to express a target PDE protein. The recombinant PDE4Bcat was purified from the culture supernatants or cell extracts of Sf9 cells expressing high levels of the PDE protein by ion exchange chromatography and was used for the following experiments.
A 4 mmol/L solution of each test compound was serially diluted four-fold with a 15% DMSO solution to prepare solutions with concentrations of 15 nmol/L to 4 mmol/L (the final concentrations used in the experiments were 1.5 nmol/L to 400 μmol/L). 10 μL of the prepared test compound solutions, [^3H] cAMP diluted with a buffer solution (40 mmol/L Tris-HCl (pH: 7.4), 10 mmol/L MgCl2), and 40 μL of the recombinant human PDE protein (2×10^−6 units, 1 unit is defined as the amount of PDE that breaks down 1 μmol/L of cAMP in one minute under the conditions of a pH of 7.5 and 30° C.) were added to a 96-well plate. The mixtures were reacted at 30° C. for 20 minutes. Then, the resultant mixtures were reacted at 65° C. for 2 minutes. Subsequently, […] of 1 mg/mL 5′-nucleotidase (Crotalusatrox venom, product of Sigma) was added to the mixtures, and the mixtures were reacted at 30° C. for 10 minutes. After completion of the reaction, 200 μL of a solution of Dowex (300 mg/mL Dowex 1x8-400 (product of Sigma Aldrich), 33% ethanol) was added to the mixtures, and the mixtures were shaken at 4° C. for 20 minutes. Subsequently, 200 μL of MicroScint 20 (product of Packard) was added to the mixtures, and measurement was performed using a scintillation counter (Topcount, product of Packard). IC50 values were calculated using Graph Pad Prism v3.03 (product of GraphPad Software). When 1 μmol/L>the IC50 value≧0.1 μmol/L, the results were represented by “+.” When 0.1 μmol/L>the IC50 value, the results were represented by “++.”

The test system of test [1] is histamine-induced bronchoconstriction. As to the kind of experiment: Histamine-induced airway contraction reaction in guinea pigs. Type of test: in vivo. As to conditions: test compound 1 mg/kg i.v., histamine 12.5 μg/kg i.v., airflow 30 seconds after administration. As for the experimental part: Guinea pigs were anesthetized with pentobarbital (30 mg/kg, i.p.). A cannula for intravenous administration, a cannula for collecting blood and measuring blood pressure, and a tracheal cannula were inserted into the left external jugular vein, right internal carotid artery, and trachea, respectively. The guinea pigs were maintained on artificial respiration under the conditions of 60 times/min and 10 mL/kg/stroke. The airflow from the side branch of the tracheal cannula was measured by a bronchospasm transducer (Ugo-Basile) and recorded on a computer via Power Lab (ADInstruments Japan). The guinea pigs were immobilized with gallamine (10 mg/kg, i.v.), and histamine was administered at 10-minute intervals (12.5 μg/kg, i.v.). After the histamine-induced bronchoconstriction was constant, one of the test compounds (1 mg/kg, i.v.) dissolved in DMSO was administered. We examined the inhibitory action of test compounds on histamine-induced bronchoconstriction 30 seconds after compounds administration. Bronchoconstriction was recorded as the value of airflow, and the results were represented by the ratio of the maximum value of the histamine-induced airflow 30 seconds after the administration to the maximum value of the airflow before the administration. When the inhibition ratio≧90%, the results were represented by “+++.” When 90%>the inhibition ratio≧70%, the results were represented by “++.” When 70%>the inhibition ratio≧30%, the results were represented by “+.”

For test [2], the system named is total number of leukocytes in bronchoalveolar lavage fluid after LPS inhalation. The experiment in a line: LPS acute inflammation model in rats. In kind it is in vivo. The conditions noted are these: Rattus norvegicus, Leukocyte, po, 3 mg/kg orally one hour before LPS inhalation, total leukocytes in BALF 3 hours after LPS inhalation, read-out: Inhibition ratio. As for the experimental part:
3 mg/kg of the compounds were orally administered to rats one hour before inhalation of lipopolysaccharide (LPS) from E. coli serotype 055:B5, rats were inhalted nebulizing LPS solution (50 mL) by nebulizer for 30 minutes. Then, 3 hours after the LPS inhalation, rats were euthanized with 20% urethane (5 ml/rat, i.p.) 5 ml of physiological saline for bronchoalveolar lavage was injected into the bronchoalveolar space through the airway, and the bronchoalveolar space was washed 3 times using a 5 mL syringe. This procedure was repeated twice, and the solution was collected as bronchoalveolar lavage fluid (BALF). The collected BALF was centrifuged at 1,200 rpm and 4° C. for 10 minutes (Hirtachi; himac CR 5 DL). The sediment was re-suspended in 10 mL of a 0.1% bovine serum albumin-physiological saline, and an equivalent amount of Turk's solution was added to the suspension to stain leukocytes. The total number of leukocytes was counted under a microscope to determine the inhibition ratio. When the inhibition ratio≧60%, the results were represented by “++.” When 60%>the inhibition ratio≧30%, the results were represented by “+.”

SMILES strings stand for the structures.

T1 sequence (Q07343 330-659 limits assumed): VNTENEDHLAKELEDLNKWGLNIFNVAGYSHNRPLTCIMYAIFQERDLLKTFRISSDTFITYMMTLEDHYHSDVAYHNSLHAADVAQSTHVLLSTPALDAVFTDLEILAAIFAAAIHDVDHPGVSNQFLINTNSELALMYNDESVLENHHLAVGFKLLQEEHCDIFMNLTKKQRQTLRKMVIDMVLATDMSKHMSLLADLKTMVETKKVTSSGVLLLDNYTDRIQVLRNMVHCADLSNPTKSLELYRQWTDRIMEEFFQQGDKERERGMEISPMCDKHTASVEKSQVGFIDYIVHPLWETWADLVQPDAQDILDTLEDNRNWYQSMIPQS

On to `COc1ccc(C(O)Cc2ccncc2)c2cc(C(F)(F)F)nn12` (centres unmarked) [Example 77, 1-(7-Methoxy-2-trifluoromethylpyrazolo[1,5-a]pyridin-4-yl)-2-(pyridin-4-yl)ethanol], for which the IC50 at PDE4B catalytic domain lay in the range of 0.1 to 1 µmol/L. Further, in test [1], the Inhibition ratio result is recorded as “+ (When 70%>the inhibition ratio≧30%, the results were represented by “+.”)”.
On to `COc1ccc(C=Cc2ccncc2)c2cc(C(F)(F)F)nn12` [Example 78, 7-Methoxy-4-[(2-pyridin-4-yl)vinyl]-2-trifluoromethylpyrazolo[1,5-a]pyridine], for which, on PDE4B catalytic domain, the IC50 is less than 0.1 µmol/L. Moreover, the Inhibition ratio entry in test [1] is reported as “+ (When 70%>the inhibition ratio≧30%, the results were represented by “+.”)”. For the same compound, the inhibition in vivo at 3 mg/kg in test [2] is 30 to 60%.
Turning to `COc1ccc(CCc2ccncc2)c2cc(C(F)(F)F)nn12` [Example 79, 7-Methoxy-4-[(2-pyridin-4-yl)ethyl]-2-trifluoromethylpyrazolo[1,5-a]pyridine], the IC50 at PDE4B catalytic domain is less than 0.1 µmol/L. Further, the Inhibition ratio entry in test [1] is given as “+ (When 70%>the inhibition ratio≧30%, the results were represented by “+.”)”. Also, the inhibition in vivo at 3 mg/kg in test [2] was not below 60%.
For the compound `COc1ccc(C(=O)Cc2c(Cl)cncc2Cl)c2cc(C(F)(F)F)nn12` [Example 88, 2-(3,5-Dichloropyridin-4-yl)-1-(7-methoxy-2-trifluoromethylpyrazolo[1,5-a]pyridin-4-yl)ethanone], at PDE4B catalytic domain, the IC50 is less than 0.1 µmol/L. The Inhibition ratio result in test [1] is “++ (When 90%>the inhibition ratio≧70%, the results were represented by “++.”)”. Also, the inhibition in vivo at 3 mg/kg in test [2] was not below 60%.
In the case of `COc1ccc(/C=C/c2c(Cl)cncc2Cl)c2cc(C(F)(F)F)nn12` [Example 89, (E)-4-[2-(3,5-dichloropyridin-4-yl)vinyl]-7-methoxy-2-trifluoromethylpyrazolo[1,5-a]pyridine], the IC50 at PDE4B catalytic domain was less than 0.1 µmol/L. Also, in test [1], the Inhibition ratio result is “+ (When 70%>the inhibition ratio≧30%, the results were represented by “+.”)”. Further, in test [2], the inhibition in vivo at 3 mg/kg was in the range of 30 to 60%.
